Tested on: S. cerevisiae cells (strain BY4741)
Test: concentration matrix drug synergy test on S. cerevisiae growth (OD595 growth curves)

Row | Compound | effect on yeast growth
1 | C=CC[C@@H]1/C=C(\C)C[C@H](C)C[C@H](OC)[C@H]2O[C@@](O)(C(=O)C(=O)N3CCCC[C@H]3C(=O)O[C@H](/C(C)=C/[C@@H]3CC[C@@H](O)[C@H](OC)C3)[C@H](C)[C@@H](O)CC1=O)[C@H](C)C[C@@H]2OC [tacrolimus] | only mildly reduced yeast growth
2 | C/C1=C/C(=O)O[C@@H]2C[C@@H](CC[C@H](C)/C=C\CC1)O[C@@](O)([C@@H]1CSC(=O)N1)C2 [latrunculin B] | only mildly reduced yeast growth
